In ChEMBL document CHEMBL1201862, “PubChem BioAssay data set” (2004):
Values joined by “and” are separate entries in the source; they are usually repeats but may differ in a detail not shown here. Equal entries are not always repeated.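 1) Cells in 96-well plates. 2) Compound, 48 h, 5 concentrations. 3) Linear interpolation between surrounding doses. 4) Unreached endpoint = highest concentration. At the GI50, growth is halved.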 Active and inactive are the calls of the source. Cut-off read from the data, not from the text of the source: active = GI50 up to about 1.1 µM and inactive = higher.

Key:
Test in all cases: growth of human tumour cells (NCI), 48 h
SW-620 = tested on: SW-620
SF-295 = tested on: SF-295
MCF7 = tested on: MCF7
MDA-N = tested on: MDA-N
DU-145 = tested on: DU-145
K562 = tested on: K562
NCI/ADR-RES = tested on: NCI/ADR-RES
SF-268 = tested on: SF-268
CAKI-1 = tested on: CAKI-1
HL-60 = tested on: HL-60
A498 = tested on: A498
786-0 = tested on: 786-0
M14 = tested on: M14
HOP-62 = tested on: HOP-62
HOP-92 = tested on: HOP-92
LOX IMVI = tested on: LOX IMVI
Malme-3M = tested on: Malme-3M
EKVX = tested on: EKVX
RPMI-8226 = tested on: RPMI-8226
COLO 205 = tested on: COLO 205
HCT-116 = tested on: HCT-116
MDA-MB-435 = tested on: MDA-MB-435
SF-539 = tested on: SF-539
SK-MEL-2 = tested on: SK-MEL-2
OVCAR-4 = tested on: OVCAR-4
KM12 = tested on: KM12
BT-549 = tested on: BT-549
UO-31 = tested on: UO-31
MDA-MB-231 = tested on: MDA-MB-231
TK-10 = tested on: TK-10
CCRF-CEM = tested on: CCRF-CEM
OVCAR-5 = tested on: OVCAR-5
NCI-H23 = tested on: NCI-H23
NCI-H226 = tested on: NCI-H226
A549 = tested on: A549
U-251 = tested on: U-251
SK-MEL-28 = tested on: SK-MEL-28
SNB-75 = tested on: SNB-75
RXF 393 = tested on: RXF 393
UACC-62 = tested on: UACC-62
PC-3 = tested on: PC-3
NCI-H522 = tested on: NCI-H522
IGROV-1 = tested on: IGROV-1
SK-OV-3 = tested on: SK-OV-3
NCI-H460 = tested on: NCI-H460
HT-29 = tested on: HT-29
SR = tested on: SR
SK-MEL-5 = tested on: SK-MEL-5
SNB-19 = tested on: SNB-19
Hs-578T = tested on: Hs-578T
OVCAR-8 = tested on: OVCAR-8
OVCAR-3 = tested on: OVCAR-3
MOLT-4 = tested on: MOLT-4
HCC 2998 = tested on: HCC 2998
T47D = tested on: T47D
UACC-257 = tested on: UACC-257
SN12C = tested on: SN12C
ACHN = tested on: ACHN
HCT-15 = tested on: HCT-15
LXFL 529 = tested on: LXFL 529
SNB-78 = tested on: SNB-78
DLD-1 = tested on: DLD-1
KM-20L2 = tested on: KM-20L2
DMS-114 = tested on: DMS-114
XF498 = tested on: XF498
M19-MEL = tested on: M19-MEL

CCNC(=S)N/N=C(/C)c1cccc(/C(C)=N\NC(=S)NCC)n1
GI50 (SW-620): 0.486 µM (active) | GI50 (SF-295): 0.488 µM (active) | GI50 (MCF7): 689 nM (active) | GI50 (MDA-N): 1.23 µM (inactive) | GI50 (DU-145): 1.35 µM (inactive) | GI50 (K562): 1.13 µM (inactive) | GI50 (NCI/ADR-RES): 748 nM (active) | GI50 (SF-268): 0.59 µM (active) | GI50 (CAKI-1): 1.23 µM (inactive) | GI50 (HL-60): 570 nM (active) | GI50 (A498): 7.52 µM (inactive) | GI50 (786-0): 1.5 µM (inactive) | GI50 (M14): 1.2 µM (inactive) | GI50 (HOP-62): 1.11 µM (active) | GI50 (HOP-92): 1.69 µM (inactive) | GI50 (LOX IMVI): 373 nM (active) | GI50 (Malme-3M): 2.44 µM (inactive) | GI50 (EKVX): 1.11 µM (active) | GI50 (RPMI-8226): 847 nM (active) | GI50 (COLO 205): 1.08 µM (active) | GI50 (HCT-116): 367 nM (active) | GI50 (MDA-MB-435): 2.82 µM (inactive) | GI50 (SF-539): 1.27 µM (inactive) | GI50 (SK-MEL-2): 3.9 µM (inactive) | GI50 (OVCAR-4): 2.14 µM (inactive) | GI50 (KM12): 0.593 µM (active) | GI50 (BT-549): 10.4 µM (inactive) | GI50 (UO-31): 0.968 µM (active) | GI50 (MDA-MB-231): 2.32 µM (inactive) | GI50 (TK-10): 0.771 µM (active) | GI50 (CCRF-CEM): 303 nM (active) | GI50 (OVCAR-5): 0.873 µM (active) | GI50 (NCI-H23): 4.06 µM (inactive) | GI50 (NCI-H226): 0.333 µM (active) | GI50 (A549): 0.719 µM (active) | GI50 (U-251): 0.553 µM (active) | GI50 (SK-MEL-28): 2.38 µM (inactive) | GI50 (SNB-75): 14.9 µM (inactive) | GI50 (RXF 393): 3.44 µM (inactive) | GI50 (UACC-62): 1.09 µM (active) | GI50 (PC-3): 614 nM (active) | GI50 (NCI-H522): 1.15 µM (inactive) | GI50 (IGROV-1): 1.24 µM (inactive) | GI50 (SK-OV-3): 2.63 µM (inactive) | GI50 (NCI-H460): 0.31 µM (active) | GI50 (HT-29): 0.315 µM (active) | GI50 (SR): 0.184 µM (active) | GI50 (SK-MEL-5): 0.774 µM (active) | GI50 (SNB-19): 5.48 µM (inactive) | GI50 (Hs-578T): 13.8 µM (inactive) | GI50 (OVCAR-8): 0.345 µM (active) | GI50 (OVCAR-3): 0.366 µM (active) | GI50 (MOLT-4): 365 nM (active) | GI50 (HCC 2998): 3.56 µM (inactive) | GI50 (T47D): 2.72 µM (inactive) | GI50 (UACC-257): 4.16 µM (inactive) | GI50 (SN12C): 1.46 µM (inactive) | GI50 (ACHN): 0.562 µM (active) | GI50 (HCT-15): 493 nM

CC12CCC(=O)N1c1cccnc1N2 (stereo unspecified)
GI50 (SW-620): > 100 µM (inactive) | GI50 (SF-295): > 100 µM (inactive) | GI50 (K562): > 100 µM (inactive) | GI50 (SF-268): > 100 µM (inactive) | GI50 (CAKI-1): > 100 µM (inactive) | GI50 (HL-60): > 100000 nM (inactive) | GI50 (A498): > 100 µM (inactive) | GI50 (786-0): > 100 µM (inactive) | GI50 (M14): > 100 µM (inactive) | GI50 (HOP-62): > 100 µM (inactive) | GI50 (HOP-92): > 100 µM (inactive) | GI50 (LOX IMVI): > 100000 nM (inactive) | GI50 (Malme-3M): > 100 µM (inactive) | GI50 (EKVX): > 100 µM (inactive) | GI50 (RPMI-8226): > 100000 nM (inactive) | GI50 (COLO 205): > 100 µM (inactive) | GI50 (SF-539): > 100 µM (inactive) | GI50 (SK-MEL-2): > 100 µM (inactive) | GI50 (OVCAR-4): > 100 µM (inactive) | GI50 (KM12): > 100 µM (inactive) | GI50 (LXFL 529): > 100 µM (inactive) | GI50 (UO-31): > 100 µM (inactive) | GI50 (TK-10): > 100 µM (inactive) | GI50 (CCRF-CEM): > 100000 nM (inactive) | GI50 (OVCAR-5): > 100 µM (inactive) | GI50 (NCI-H23): > 100 µM (inactive) | GI50 (SNB-78): > 100 µM (inactive) | GI50 (NCI-H226): > 100 µM (inactive) | GI50 (A549): > 100 µM (inactive) | GI50 (U-251): > 100 µM (inactive) | GI50 (SK-MEL-28): > 100 µM (inactive) | GI50 (DLD-1): > 100 µM (inactive) | GI50 (KM-20L2): > 100 µM (inactive) | GI50 (SNB-75): > 100 µM (inactive) | GI50 (RXF 393): > 100 µM (inactive) | GI50 (UACC-62): > 100 µM (inactive) | GI50 (NCI-H522): > 100 µM (inactive) | GI50 (IGROV-1): > 100 µM (inactive) | GI50 (SK-OV-3): > 100 µM (inactive) | GI50 (DMS-114): > 100 µM (inactive) | GI50 (NCI-H460): > 100 µM (inactive) | GI50 (HT-29): > 100 µM (inactive) | GI50 (SK-MEL-5): > 100 µM (inactive) | GI50 (OVCAR-8): > 100 µM (inactive) | GI50 (OVCAR-3): > 100 µM (inactive) | GI50 (XF498): > 100 µM (inactive) | GI50 (MOLT-4): > 100000 nM (inactive) | GI50 (HCC 2998): > 100 µM (inactive) | GI50 (UACC-257): > 100 µM (inactive) | GI50 (SN12C): > 100 µM (inactive) | GI50 (ACHN): > 100 µM (inactive) | GI50 (HCT-15): > 100000 nM | GI50 (M19-MEL): > 100 µM (inactive)

N#Cc1c(-c2ccccc2)cc(-c2ccccc2)n(C2OC(CO)C(O)C(O)C2O)c1=O (stereo unspecified)
GI50 (K562): 44.2 µM (inactive) and 49.7 µM (inactive) | GI50 (HL-60): 43.9 µM (inactive) and 44.2 µM (inactive) | GI50 (LOX IMVI): 61.9 µM (inactive) and 63.1 µM (inactive) | GI50 (RPMI-8226): 69.7 µM (inactive) and 84.3 µM (inactive) | GI50 (LXFL 529): 68.4 µM (inactive) and 97.5 µM (inactive) | GI50 (CCRF-CEM): 59.8 µM (inactive) and 47.1 µM (inactive) | GI50 (UACC-62): 86.5 µM (inactive) and 84.3 µM (inactive) | GI50 (SR): 47.3 µM (inactive) | GI50 (MOLT-4): 41 µM (inactive) and 38.2 µM (inactive)
